# Measured values taken from ChEMBL document CHEMBL5465560, “Selectivity Literature for EUbOPEN Chemogenomic Library” (2024).
# Tests used:
# [1] = molecular target: T1, Tyrosine-protein kinase ZAP-70 (Homo sapiens) (UniProt P43403); experiment: Selectivity interaction (KinomeScan (DiscoverX)) EUB0000655a ZAP70; details: at 10 µM
# T1 sequence (whole entry): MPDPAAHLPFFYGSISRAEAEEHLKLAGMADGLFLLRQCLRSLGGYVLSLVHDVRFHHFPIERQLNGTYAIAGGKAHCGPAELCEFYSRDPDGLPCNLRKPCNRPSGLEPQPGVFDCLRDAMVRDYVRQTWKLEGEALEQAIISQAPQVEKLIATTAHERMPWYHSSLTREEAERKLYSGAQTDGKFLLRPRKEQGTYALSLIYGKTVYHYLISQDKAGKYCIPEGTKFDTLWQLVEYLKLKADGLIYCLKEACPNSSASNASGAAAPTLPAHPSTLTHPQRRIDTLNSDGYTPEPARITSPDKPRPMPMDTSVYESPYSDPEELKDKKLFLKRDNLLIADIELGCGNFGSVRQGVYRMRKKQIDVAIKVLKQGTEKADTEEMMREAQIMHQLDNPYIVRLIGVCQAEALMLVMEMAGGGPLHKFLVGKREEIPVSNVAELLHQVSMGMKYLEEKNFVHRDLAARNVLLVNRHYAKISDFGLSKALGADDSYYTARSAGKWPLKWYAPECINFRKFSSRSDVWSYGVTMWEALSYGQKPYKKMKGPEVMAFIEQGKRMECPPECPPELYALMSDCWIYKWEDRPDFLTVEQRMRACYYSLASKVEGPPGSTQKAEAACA
# [2] = molecular target: Cyclin-dependent kinase 5 (Homo sapiens, UniProt Q00535); experiment: Selectivity interaction (KinomeScan (DiscoverX)) EUB0001079a CDK5; details: at 1 µM
# [3] = molecular target: Serine/threonine-protein kinase NIM1 (Homo sapiens, UniProt Q8IY84); experiment: Selectivity interaction (KinomeScan (DiscoverX)) EUB0001079a NIM1K; details: at 1 µM
# [4] = molecular target: Casein kinase I isoform alpha (Homo sapiens, UniProt P48729); experiment: Selectivity interaction (KinomeScan (DiscoverX)) EUB0000618a CSNK1A1; details: at 10 µM
# [5] = molecular target: Protein kinase C alpha type (Homo sapiens, UniProt P17252); experiment: Selectivity interaction (ActivX KiNativ screen (ex vivo kinase selectivity in human PBMCs)) EUB0001619a PRKCA; assay type: cell-based; details: PBMC, at 1 µM
# [6] = molecular target: Ribosomal protein S6 kinase alpha-1 (Homo sapiens, UniProt Q15418); experiment: Selectivity interaction (KinomeScan (DiscoverX)) EUB0000045b RPS6KA1; details: at 10 µM
# [7] = molecular target: Mitogen-activated protein kinase kinase kinase 9 (Homo sapiens) (UniProt P80192); experiment: Selectivity interaction (KinomeScan (DiscoverX)) EUB0000045b MAP3K9
# [8] = molecular target: 5'-AMP-activated protein kinase catalytic subunit alpha-1 (Homo sapiens, UniProt Q13131); experiment: Selectivity interaction (Kinase panel (Enzyme activity assay)) EUB0000612a PRKAA1
# [9] = molecular target: T2, Mitogen-activated protein kinase kinase kinase 19 (Homo sapiens) (UniProt Q56UN5); experiment: Selectivity interaction (KinomeScan (DiscoverX)) EUB0000666a MAP3K19; details: at 10 µM
# T2 sequence (whole entry): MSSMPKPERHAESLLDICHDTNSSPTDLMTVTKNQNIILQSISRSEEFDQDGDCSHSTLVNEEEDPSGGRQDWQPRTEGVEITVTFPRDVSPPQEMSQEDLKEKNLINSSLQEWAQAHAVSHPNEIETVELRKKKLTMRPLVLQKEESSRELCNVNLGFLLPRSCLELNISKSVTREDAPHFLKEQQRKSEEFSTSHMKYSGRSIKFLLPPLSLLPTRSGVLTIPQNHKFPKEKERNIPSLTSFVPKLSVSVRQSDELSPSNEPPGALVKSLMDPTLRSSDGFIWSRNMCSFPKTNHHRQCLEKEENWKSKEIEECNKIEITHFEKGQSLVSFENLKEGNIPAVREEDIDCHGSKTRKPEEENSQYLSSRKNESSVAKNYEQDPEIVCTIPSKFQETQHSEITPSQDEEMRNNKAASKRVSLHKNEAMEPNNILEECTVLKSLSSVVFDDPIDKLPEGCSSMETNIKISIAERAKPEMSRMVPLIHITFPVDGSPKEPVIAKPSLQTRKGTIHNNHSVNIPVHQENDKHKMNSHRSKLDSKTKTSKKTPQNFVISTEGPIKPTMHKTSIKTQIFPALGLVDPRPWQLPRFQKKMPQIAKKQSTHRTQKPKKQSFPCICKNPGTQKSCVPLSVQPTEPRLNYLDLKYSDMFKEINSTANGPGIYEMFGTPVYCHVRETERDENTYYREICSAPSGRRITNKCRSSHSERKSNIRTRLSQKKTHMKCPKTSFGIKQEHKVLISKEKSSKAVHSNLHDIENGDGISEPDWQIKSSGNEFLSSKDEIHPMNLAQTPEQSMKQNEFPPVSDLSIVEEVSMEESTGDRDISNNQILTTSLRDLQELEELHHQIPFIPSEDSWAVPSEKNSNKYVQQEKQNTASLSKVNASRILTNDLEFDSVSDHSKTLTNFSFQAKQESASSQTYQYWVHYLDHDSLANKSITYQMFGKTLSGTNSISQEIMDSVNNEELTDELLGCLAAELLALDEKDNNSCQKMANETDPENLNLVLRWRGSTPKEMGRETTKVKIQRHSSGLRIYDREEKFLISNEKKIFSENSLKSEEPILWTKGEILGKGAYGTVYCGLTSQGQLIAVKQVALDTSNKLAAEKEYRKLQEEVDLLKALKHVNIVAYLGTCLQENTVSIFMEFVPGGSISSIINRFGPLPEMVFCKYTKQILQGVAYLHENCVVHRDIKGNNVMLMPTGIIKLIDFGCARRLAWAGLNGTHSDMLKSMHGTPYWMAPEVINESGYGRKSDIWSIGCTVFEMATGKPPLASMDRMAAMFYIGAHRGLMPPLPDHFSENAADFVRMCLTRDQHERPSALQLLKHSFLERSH
# Chain of Mitogen-activated protein kinase kinase kinase 9 (Homo sapiens) (P80192 whole entry, looked up): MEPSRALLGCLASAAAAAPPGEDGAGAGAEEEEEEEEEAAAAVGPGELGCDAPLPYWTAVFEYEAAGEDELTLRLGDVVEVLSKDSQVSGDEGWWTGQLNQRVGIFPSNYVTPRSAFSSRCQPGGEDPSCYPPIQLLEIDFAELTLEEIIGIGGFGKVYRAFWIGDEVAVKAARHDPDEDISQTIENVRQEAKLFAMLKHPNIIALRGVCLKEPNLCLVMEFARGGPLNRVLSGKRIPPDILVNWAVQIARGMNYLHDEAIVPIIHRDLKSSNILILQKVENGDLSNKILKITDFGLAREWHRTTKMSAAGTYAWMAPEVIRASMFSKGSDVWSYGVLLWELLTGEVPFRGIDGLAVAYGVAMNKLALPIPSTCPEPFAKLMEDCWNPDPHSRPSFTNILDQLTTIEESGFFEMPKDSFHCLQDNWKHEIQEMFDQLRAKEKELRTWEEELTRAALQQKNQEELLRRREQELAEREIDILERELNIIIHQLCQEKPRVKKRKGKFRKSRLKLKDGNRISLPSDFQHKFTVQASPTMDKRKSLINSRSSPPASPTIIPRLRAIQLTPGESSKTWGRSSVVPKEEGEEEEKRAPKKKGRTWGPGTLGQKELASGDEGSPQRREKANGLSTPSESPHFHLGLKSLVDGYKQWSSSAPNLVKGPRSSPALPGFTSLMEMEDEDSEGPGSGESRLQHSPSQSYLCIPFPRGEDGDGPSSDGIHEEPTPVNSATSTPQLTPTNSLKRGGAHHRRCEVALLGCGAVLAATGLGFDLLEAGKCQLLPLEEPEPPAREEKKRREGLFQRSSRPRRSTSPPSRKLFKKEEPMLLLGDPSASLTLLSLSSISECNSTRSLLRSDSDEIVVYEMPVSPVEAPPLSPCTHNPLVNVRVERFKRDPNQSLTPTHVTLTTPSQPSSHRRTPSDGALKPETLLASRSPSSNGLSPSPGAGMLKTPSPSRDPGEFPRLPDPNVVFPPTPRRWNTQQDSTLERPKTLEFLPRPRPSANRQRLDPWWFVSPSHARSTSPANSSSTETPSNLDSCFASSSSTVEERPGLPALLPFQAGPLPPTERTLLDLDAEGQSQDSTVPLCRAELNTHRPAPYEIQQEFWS
# Chain of Cyclin-dependent kinase 5 (Q00535 whole entry, looked up): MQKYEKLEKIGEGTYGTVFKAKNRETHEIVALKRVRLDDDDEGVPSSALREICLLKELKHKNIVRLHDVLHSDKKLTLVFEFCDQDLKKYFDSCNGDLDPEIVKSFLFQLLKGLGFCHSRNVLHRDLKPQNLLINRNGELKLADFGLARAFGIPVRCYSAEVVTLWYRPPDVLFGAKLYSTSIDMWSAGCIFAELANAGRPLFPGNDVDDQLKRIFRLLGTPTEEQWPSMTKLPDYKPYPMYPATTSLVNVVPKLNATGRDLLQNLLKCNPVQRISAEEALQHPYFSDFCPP
# Chain of Ribosomal protein S6 kinase alpha-1 (Q15418 whole entry): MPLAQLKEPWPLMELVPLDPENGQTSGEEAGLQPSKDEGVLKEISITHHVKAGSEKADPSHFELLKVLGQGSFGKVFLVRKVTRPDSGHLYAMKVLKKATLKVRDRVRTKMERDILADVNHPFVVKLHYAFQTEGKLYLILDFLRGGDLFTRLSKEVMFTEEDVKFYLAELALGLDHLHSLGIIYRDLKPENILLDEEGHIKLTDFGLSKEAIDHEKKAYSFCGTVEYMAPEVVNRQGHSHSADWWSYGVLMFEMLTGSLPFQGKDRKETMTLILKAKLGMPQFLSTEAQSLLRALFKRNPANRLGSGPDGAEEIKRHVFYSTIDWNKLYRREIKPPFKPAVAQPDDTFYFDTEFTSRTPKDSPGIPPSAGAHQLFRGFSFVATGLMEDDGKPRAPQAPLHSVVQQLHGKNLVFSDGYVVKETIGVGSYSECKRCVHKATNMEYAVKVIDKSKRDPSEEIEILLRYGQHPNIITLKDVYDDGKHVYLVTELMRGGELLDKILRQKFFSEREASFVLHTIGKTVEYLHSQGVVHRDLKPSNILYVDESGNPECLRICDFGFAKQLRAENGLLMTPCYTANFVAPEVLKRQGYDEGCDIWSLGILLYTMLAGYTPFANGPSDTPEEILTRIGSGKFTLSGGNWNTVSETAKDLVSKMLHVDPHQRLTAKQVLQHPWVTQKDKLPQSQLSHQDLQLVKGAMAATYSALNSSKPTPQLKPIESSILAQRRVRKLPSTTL
# Chain of Serine/threonine-protein kinase NIM1 (Q8IY84 whole entry, canonical isoform): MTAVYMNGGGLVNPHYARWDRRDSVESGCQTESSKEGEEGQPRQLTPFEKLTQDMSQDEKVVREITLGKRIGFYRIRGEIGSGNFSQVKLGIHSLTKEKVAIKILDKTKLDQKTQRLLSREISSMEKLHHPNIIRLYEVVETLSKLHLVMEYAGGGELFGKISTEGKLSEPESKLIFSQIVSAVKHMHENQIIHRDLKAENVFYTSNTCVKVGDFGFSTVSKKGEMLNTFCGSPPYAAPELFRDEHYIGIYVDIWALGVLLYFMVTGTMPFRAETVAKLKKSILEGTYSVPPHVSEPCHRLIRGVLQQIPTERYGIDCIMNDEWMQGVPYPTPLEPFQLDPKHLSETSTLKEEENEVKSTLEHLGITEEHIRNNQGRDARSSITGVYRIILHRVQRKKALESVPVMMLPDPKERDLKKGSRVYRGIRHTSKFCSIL
# Chain of Casein kinase I isoform alpha (P48729 2-337 limits assumed): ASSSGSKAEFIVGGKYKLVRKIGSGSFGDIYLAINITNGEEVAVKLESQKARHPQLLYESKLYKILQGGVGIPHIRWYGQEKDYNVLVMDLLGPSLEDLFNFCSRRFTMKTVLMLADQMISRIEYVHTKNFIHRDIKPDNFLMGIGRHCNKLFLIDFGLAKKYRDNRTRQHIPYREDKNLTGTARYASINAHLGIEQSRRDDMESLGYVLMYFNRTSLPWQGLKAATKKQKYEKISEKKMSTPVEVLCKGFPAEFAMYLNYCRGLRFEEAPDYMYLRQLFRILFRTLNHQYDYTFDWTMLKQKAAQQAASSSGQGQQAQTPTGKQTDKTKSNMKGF
# Chain of 5'-AMP-activated protein kinase catalytic subunit alpha-1 (Q13131 whole entry): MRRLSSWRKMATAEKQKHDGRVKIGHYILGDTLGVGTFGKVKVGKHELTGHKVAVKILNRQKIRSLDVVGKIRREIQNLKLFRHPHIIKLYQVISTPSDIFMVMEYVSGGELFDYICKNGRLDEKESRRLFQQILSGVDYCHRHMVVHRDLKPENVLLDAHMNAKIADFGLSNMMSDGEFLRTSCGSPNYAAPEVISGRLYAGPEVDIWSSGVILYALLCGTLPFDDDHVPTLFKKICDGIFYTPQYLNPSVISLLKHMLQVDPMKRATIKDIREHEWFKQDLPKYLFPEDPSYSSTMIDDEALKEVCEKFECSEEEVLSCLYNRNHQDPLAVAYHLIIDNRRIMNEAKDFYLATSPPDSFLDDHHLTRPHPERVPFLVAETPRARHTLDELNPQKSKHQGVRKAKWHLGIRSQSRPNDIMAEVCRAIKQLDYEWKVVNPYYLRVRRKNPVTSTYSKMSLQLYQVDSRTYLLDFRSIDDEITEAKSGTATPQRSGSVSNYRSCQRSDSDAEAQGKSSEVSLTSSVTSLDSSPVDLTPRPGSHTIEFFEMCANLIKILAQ
structure (smiles),measurement,setting,value
CN(C)CCOc1ccc(-c2nc(-c3ccncc3)c(-c3ccc4c(c3)CC/C4=N\O)[nH]2)cc1,% of control,[1],100%
Nc1cnc(N2CCc3cc(S(=O)(=O)Nc4c(F)cc(Cl)cc4F)cc(N4CCCC4=O)c32)nc1 [TP-020n],% of control,[2],100%
same,% of control,[3],100%
O[C@H]1CC[C@H](Nc2ncc3nc(Nc4c(F)cc(F)cc4F)n([C@H]4CCOC4)c3n2)CC1,% of control,[4],100%
N#Cc1cccc(-c2c[nH]c3ncnc(N4CCOCC4)c23)c1,% of inhibition,[5],57%
C=CC(=O)Nc1cc(-n2c(=O)ccc3cnc4ccc(-c5ccc(NS(C)(=O)=O)cc5)cc4c32)ccc1C,% of control,[6],78%
same,% of control,[7]; at 1 µM,100%
same,% of control,[7]; at 10 µM,83%
CCc1cccc(CC)c1NC(=O)c1nn(C)c2c1CCc1cnc(Nc3ccc(C(=O)NC4CCN(C)CC4)cc3OC(F)(F)F)nc1-2,IC50,[8],> 10 µM
O=C(NOC[C@H](O)CO)c1ccc(F)c(F)c1Nc1ccc(I)cc1F,% of control,[9],100%
